Literature values, collected in article PMC12042267, “Expanding the Family of Monosubstituted 15-Membered Pyridine-Based Macrocyclic Ligands for Mn(II) Complexation in the Context of MRI” (Inorganic Chemistry, 2025).
Read-outs that look alike come from different tables or passages of the source. Marks after values point to notes of the source that are not given here.

Key:
[1] = Cu(II), cited from earlier work
[2] = cited from earlier work; for log KML / log KHML / log KML(OH): Mn(II); for log KHML: 25 °C, log KMnHL in Table 5 ref 21
[3] = Zn(II), cited from earlier work
[4] = Ca(II), cited from earlier work
[5] = Mn(II) complex, cited from earlier work; for dissociation half-life t1/2: calculated for pH 7.4
[6] = cited from earlier work
[7] = cited from earlier work; for r1 (relaxivity): 25 °C, 20 MHz
[8] = cited from earlier work; remark: listed apart in the source
[9] = pH 7.4, cMn = clig = 10^–5 M ref 21

O=C(O)CN1CCNCc2cccc(n2)CN(CC(=O)O)CC1 [3,6-PC2A]
log KHML ([1]; I = 0.15 M NaCl, 25 °C ref 21): 2.37 | log KML ([1]; I = 0.15 M NaCl, 25 °C ref 21): 24.09 | log KML ([2]; I = 0.15 M NaCl, 25 °C ref 21): 15.53 | log KHML ([2]; I = 0.15 M NaCl): 3.06 | pMn [2, 9]: 8.09 | log KHML ([3]; I = 0.15 M NaCl, 25 °C ref 21): 2.36 | log KML ([3]; I = 0.15 M NaCl, 25 °C ref 21): 20.37 | log KHML ([4]; I = 0.15 M NaCl, 25 °C ref 21): 5.27 | log KML ([4]; I = 0.15 M NaCl, 25 °C ref 21): 9.57 | k1 ([5]; Cu(II) transmetalation ref 21): 70 ± 1 M^–1 s^–1 | k2 ([5]; Cu(II) transmetalation ref 21): (1.5 ± 0.4) × 10^5 M^–2 s^–1 | k3 ([5]; Cu(II) transmetalation ref 21): (2.6 ± 0.7) × 10^–2 M^–1 s^–1 | dissociation half-life t1/2 ([5]; Cu(II) ref 21): 63.2 h | log K1^H ([6]; 1.0 M NaCl ref 21): 10.31 | log K2^H ([6]; 1.0 M NaCl ref 21): 8.59 | log K3^H ([6]; 1.0 M NaCl ref 21): 3.92 | log K4^H ([6]; 1.0 M NaCl ref 21): 1.56 | log K1^H ([6]; I = 0.15 M NaCl, 25 °C ref 21): 10.72 | log K2^H ([6]; I = 0.15 M NaCl, 25 °C ref 21): 8.37 | log K3^H ([6]; I = 0.15 M NaCl, 25 °C ref 21): 3.81 | log K4^H ([6]; I = 0.15 M NaCl, 25 °C ref 21): 1.26

O=C(O)CN1CCOCCN(CC(=O)O)Cc2cccc(n2)C1 [3,9-OPC2A]
log KHML ([1]; I = 0.15 M NaCl, 25 °C ref 26): 1.92 | log KML ([1]; I = 0.15 M NaCl, 25 °C ref 26): 18.41 | log KML(OH) ([1]; I = 0.15 M NaCl, 25 °C ref 26): -10.50 | log KML ([2]; I = 0.15 M NaCl, 25 °C ref 26): 13.03 | log KML(OH) ([2]; I = 0.15 M NaCl, 25 °C ref 26): -11.49 | pMn ([2]; pH 7.4, cMn = clig = 10^–5 M ref 26): 8.69 | log KHML ([3]; I = 0.15 M NaCl, 25 °C ref 26): 2.08 | log KML ([3]; I = 0.15 M NaCl, 25 °C ref 26): 14.81 | log KML(OH) ([3]; I = 0.15 M NaCl, 25 °C ref 26): -10.95 | log KML ([4]; I = 0.15 M NaCl, 25 °C ref 26): 8.27 | k0 ([5]; Cu(II) transmetalation ref 26): (8.6 ± 1.1) × 10^–6 s^–1 | k1 ([5]; Cu(II) transmetalation ref 26): 2.81 ± 0.07 M^–1 s^–1 | dissociation half-life t1/2 ([5]; Cu(II) ref 26): 21.9 h | log K1^H ([6]; I = 0.15 M NaCl, 25 °C ref 26): 7.73 | log K2^H ([6]; I = 0.15 M NaCl, 25 °C ref 26): 7.66 | log K3^H ([6]; I = 0.15 M NaCl, 25 °C ref 26): 2.13

O=C(O)CN1CCNCCN(CC(=O)O)Cc2cccc(n2)C1 [3,9-PC2A]
log KHML ([1]; I = 0.15 M NaCl, 25 °C ref 21): 2.12 | log KML ([1]; I = 0.15 M NaCl, 25 °C ref 21): 23.58 | log KML ([2]; I = 0.15 M NaCl, 25 °C ref 21): 17.09 | log KHML ([2]; I = 0.15 M NaCl): 2.14 | pMn [2, 9]: 8.64 | log KHML ([3]; I = 0.15 M NaCl, 25 °C ref 21): 2.74 | log KML ([3]; I = 0.15 M NaCl, 25 °C ref 21): 19.49 | log KHML ([4]; I = 0.15 M NaCl, 25 °C ref 21): 5.08 | log KML ([4]; I = 0.15 M NaCl, 25 °C ref 21): 9.92 | k1 ([5]; Cu(II) transmetalation ref 21): 221 ± 5 M^–1 s^–1 | k3 ([5]; Cu(II) transmetalation ref 21): (3.6 ± 0.7) × 10^–2 M^–1 s^–1 | dissociation half-life t1/2 ([5]; Cu(II) ref 21): 21.0 h | log K1^H ([6]; 0.1 M KCl ref 42): 12.50 | log K2^H ([6]; 0.1 M KCl ref 42): 5.75 | log K3^H ([6]; 0.1 M KCl ref 42): 3.28 | log K4^H ([6]; 0.1 M KCl ref 42): 2.38 | log K1^H ([6]; I = 0.15 M NaCl, 25 °C ref 21): 12.25 | log K2^H ([6]; I = 0.15 M NaCl, 25 °C ref 21): 5.97 | log K3^H ([6]; I = 0.15 M NaCl, 25 °C ref 21): 3.47 | log K4^H ([6]; I = 0.15 M NaCl, 25 °C ref 21): 1.99

c1cc2nc(c1)CNCCOc1ccccc1OCCNC2 [15-pyN3O2Ph]
log KML ([1]; I = 0.15 M NaCl, 25 °C ref 29): 13.97 | log KML(OH) ([1]; I = 0.15 M NaCl, 25 °C ref 29): -8.95 | log KML ([2]; I = 0.15 M NaCl, 25 °C ref 29): 5.62 | log KML(OH) ([2]; I = 0.15 M NaCl, 25 °C ref 29): -10.50 | pMn ([2]; pH 7.4, cMn = clig = 10^–5 M ref 30): 5.04^a | log KML ([3]; I = 0.15 M NaCl, 25 °C ref 29): 7.70 | log KML(OH) ([3]; I = 0.15 M NaCl, 25 °C ref 29): -9.62 | log KML ([4]; I = 0.15 M NaCl, 25 °C ref 29): 1.85 | log K1^H ([6]; I = 0.15 M NaCl, 25 °C ref 29): 8.53 | log K2^H ([6]; I = 0.15 M NaCl, 25 °C ref 29): 7.63

c1cc2nc(c1)CNCCOCCOCCNC2 [15-pyN3O2]
log KML ([1]; 0.1 M NMe4Cl ref 28): 13.91 | log KML(OH) ([1]; 0.1 M NMe4Cl ref 28): -8.34 | log KML(OH)2 ([1]; 0.1 M NMe4Cl ref 28): -12.57 | log KML ([2]; 0.1 M NMe4Cl ref 28): 7.18 | log KML(OH) ([2]; 0.1 M NMe4Cl ref 28): -11.69 | pMn ([2]; pH 7.4, cMn = clig = 10^–5 M ref 28): 5.28 | log KML ([3]; 0.1 M NMe4Cl ref 28): 8.58 | log KML(OH) ([3]; 0.1 M NMe4Cl ref 28): -10.31 | log KML ([4]; 0.1 M NMe4Cl ref 28): 2.04 | log KML(OH) ([4]; 0.1 M NMe4Cl ref 28): -11.92 | log K1^H ([6]; 0.1 M NMe4Cl ref 28): 8.82 | log K2^H ([6]; 0.1 M NMe4Cl ref 28): 7.80

O.O=C([O-])CN1CCOCCN(CC(=O)[O-])Cc2cccc(n2)C1.[Mn+2] [Mn(3,9-OPC2A)]
r1p298 ([7]; determined at pH 7.4 ref 26): 3.09 mM^–1 s^–1 | k0 ([5]; Cu(II) transmetalation ref 26): (8.6 ± 1.1) × 10^–6 s^–1 | kex^298 [8]: 5.3 ± 0.4 10^7 s^–1 | ΔH^‡ [8]: 28.5 ± 1.7 kJ mol^–1

O.O.[Mn+2].c1cc2nc(c1)CNCCOc1ccccc1OCCNC2 [Mn(15-pyN3O2Ph)]
r1 (relaxivity) ([7]; 0.47 T ref 29): 5.16/– mM^–1 s^–1 | AO/ℏ [8]: 43 10^6 rad s^–1 | kex^298 [8]: 0.64 10^7 s^–1 | ΔH^‡ [8]: 34.0 kJ mol^–1 | ΔS^‡ [8]: –1.0 J mol^–1K^–1

O.O.[Mn+2].c1cc2nc(c1)CNCCNCCNCCNC2 [Mn(15-pyN5)]
r1 (relaxivity) ([7]; 0.47 T ref 28): 3.56 mM^–1 s^–1 | kex^298 [8]: 6.9 ± 0.7 10^7 s^–1 | ΔH^‡ [8]: 37.7 ± 4 kJ mol^–1
